Assay results taken from US20230117361A1, “COMPOSITION COMPRISING MIR-335” (AGENCY FOR SCIENCE, TECHNOLOGY AND RESEARCH, priority 2019, published 2023).

How the values were obtained:
[1] = tested on: AD-like symptoms; details: mice, two independent studies [24, 25]; cited from earlier work
[2] = tested on: promoter region of miR-335 and MEST; assay: Chromatin immunoprecipitation (ChIP)-qPCR at the promoter region of miR-335 and MEST; format: cell-based, human
Procedure: Cells were crosslinked with 1.5% formaldehyde for 10 minutes at 37° C. The reaction was stopped by adding glycine to the final concentration of 125 mM for 5 minutes at 37° C. Fixed cells were washed twice with ice-cold PBS, scraped and centrifuged. The pellets were then incubated with Buffer A (10 mM HEPES Ph7.9, 10 mM KCl, 0.1 mM EGTA, 1 mM DTT and 0.5 mM PMSF) supplemented with 1×protease inhibitor cocktail (Roche) and 10% glycerol on ice for 30 min, followed by 0.5% NP-40 for 5 minutes to lyse cytoplasmic membrane. The cells were then centrifuged at 1500×g for 5 minutes to pellet down nuclei. Nuclear pellet was then lysed in ChIP buffer (50 mM Tris pH 7.4, 150 mM NaCl, 5 mM EDTA, 0.5% NP-40, 1% Triton X-100, 0.05% SDS, 1×protease inhibitor cocktail). Nuclear chromatin was sheared by sonication for 15 min (30 sec on and 30 sec off) in Bioruptor® water bath sonicator. The sonicated samples were centrifuged, and the supernatant containing the sheared chromatin was harvested. For each ChIP reaction, 250 μl of chromatin extract was incubated with appropriate antibodies at 4° C. overnight on a rotary wheel. 50 μl of Protein A sepharose resin (precoated with 0.5% BSA and 0.2 mg/mL tRNA) was then added to the immunoprecipitated samples and incubated for 2 hours. […] Fold enrichment of the genes was calculated using ddCt method with input Ct values as normalization control.

[3] = tested on: N/TERT-1 keratinocytes; assay: Expression of MEST and keratinocyte differentiation markers (IVL, SPRR2F, TGM1) in N/TERT-1 cells treated with HDAC inhibitors; format: cell-based, human
Procedure: Cells were fixed and permeabilized with ice-cold acetone/methanol for 10 minutes. After washing in phosphate buffered saline (PBS), the cells were incubated with 10% goat serum for 30 minutes. The cells were subsequently incubated with primary antibodies for 2 hours at room temperature or overnight at 4° C. After washing three times with PBS with 0.1% Tween 20, the cells were incubated in dark with Alexa Fluor secondary antibodies (Invitrogen) for an hour. Nuclei were stained using DAPI. After washing with PBS, the cells were mounted onto slides with FluorSave reagent (EMD Millipore). Images were taken with an FV1000 inverted confocal microscope (Olympus) using Olympus FluoView.
Total RNA was isolated using miRCURY™ RNA isolation kit (Exiqon). For miRNA quantification, cDNA was synthesized using Taqman® miRNA reverse transcription kit (Life Technologies) and the expression level of miRNAs was quantified by TaqMan Gene Expression Assays (Applied Biosystems) in 7900 fast RT-PCR system (Applied Biosystems) using Taqman miRNA-specific primers. For mRNA expression, cDNA was synthesized using SuperScript® III Reverse Transcriptase (Life Technologies) according to manufacturer's protocol. The expression levels of mRNAs were measured using SYBR green PCR Master Mix (Applied Biosystems). U6 and RPLP0 were used as endogenous normalization controls for miRNA and protein-coding genes, respectively. The expression of a gene/miRNA was defined from threshold cycle (Ct), and relative transcript abundance was calculated using ddCT method. All reactions were run in triplicates. The primers were designed using the Primer3 software and the NCBI design primer tools. The primers were checked for their GC content and any secondary structure formation using OligoCalc.
A panel of 42 HDAC inhibitors (HDACi) covering the majority of type I, II and pan HDACis were purchased from Selleckchem. N/TERT-1 grown to confluence were treated with HDACi at a final concentration of 1 μM from a 100 μM stock. Control wells were treated with DMSO at a final concentration of 1%. […]

[4] = tested on: miR-335; assay: miR-335 expression in N/TERT-1 cells treated with HDAC inhibitors (qRT-PCR, in situ hybridization); format: cell-based, human
Procedure: Paraffin wax-embedded skin tissue sections (5 μm) were dewaxed, rehydrated and boiled in pre-treatment solution (Panomics) for 5 minutes and subsequently treated with protease (Panomics) for 30 minutes at 37° C. Locked nucleic acid (LNA) probes were then added to the sections and incubated at 51° C. for 4 hours. The LNA probes used are specific to miR-335 and scrambled (non-targeting) sequences and are 5′ and 3′ digoxigenin- (DIG-) labelled. After washing the sections sequentially with 5× saline-sodium citrate (SSC), 1×SSC and 0.3×SSC buffer, they were blocked with 10% goat serum and incubated with anti-DIG alkaline phosphatase (Roche) overnight at 4° C. Fast Red Substrate (Panomics) were used to detect miRNA-bound LNA probes. […]
Total RNA was isolated using miRCURY™ RNA isolation kit (Exiqon). For miRNA quantification, cDNA was synthesized using Taqman® miRNA reverse transcription kit (Life Technologies) and the expression level of miRNAs was quantified by TaqMan Gene Expression Assays (Applied Biosystems) in 7900 fast RT-PCR system (Applied Biosystems) using Taqman miRNA-specific primers. […] The expression levels of mRNAs were measured using SYBR green PCR Master Mix (Applied Biosystems). […] The expression of a gene/miRNA was defined from threshold cycle (Ct), and relative transcript abundance was calculated using ddCT method. […]

[5] = tested on: human skin biopsies; assay: Ex-vivo human skin organ culture model, topical treatment
Procedure: Paraffin wax-embedded skin tissue sections (5 μm) were dewaxed, rehydrated and boiled in pre-treatment solution (Panomics) for 5 minutes and subsequently treated with protease (Panomics) for 30 minutes at 37° C. Locked nucleic acid (LNA) probes were then added to the sections and incubated at 51° C. for 4 hours. The LNA probes used are specific to miR-335 and scrambled (non-targeting) sequences and are 5′ and 3′ digoxigenin- (DIG-) labelled. After washing the sections sequentially with 5× saline-sodium citrate (SSC), 1×SSC and 0.3×SSC buffer, they were blocked with 10% goat serum and incubated with anti-DIG alkaline phosphatase (Roche) overnight at 4° C. Fast Red Substrate (Panomics) were used to detect miRNA-bound LNA probes. Tissue sections were counterstained with 4′,6-diamidino-2-phenylindole dihydrochloride (DAPI) (Sigma-Aldrich) and mounted with FluorSave™ reagent (EMD Millipore). The slides were examined with an FV1000 inverted confocal microscope (Olympus) and images were acquired using Olympus FluoView with TRITC and DAPI filters.
Paraffin wax-embedded skin tissue sections (5 μm) were dewaxed and rehydrated through decreasing concentration of ethanol. Endogenous peroxidases in tissue sections were quenched by 3% H2O2 in absolute methanol for 30 minutes. The sections were then boiled in antigen retrieval solution (pH 6, DAKO). Sections were then blocked in 10% goat serum for 30 minutes and incubated with primary antibodies overnight at 4° C. After incubation with primary antibodies, tissues were incubated with anti-rabbit or -mouse Envision-labelled polymer reagents (DAKO) for 1 hour at room temperature. The staining was visualized by 3,3′-diaminodbenzidine (DAB) substrate chromogen kit (DAKO). Slides were counterstained with haematoxylin and examined with a Zeiss AxioImager Z1 upright light microscope after mounting with CytosealTM60 mounting medium (Richard Allan Scientific). Images were acquired using Zeiss Zen software.
Total RNA was isolated using miRCURY™ RNA isolation kit (Exiqon). For miRNA quantification, cDNA was synthesized using Taqman® miRNA reverse transcription kit (Life Technologies) and the expression level of miRNAs was quantified by TaqMan Gene Expression Assays (Applied Biosystems) in 7900 fast RT-PCR system (Applied Biosystems) using Taqman miRNA-specific primers. For mRNA expression, cDNA was synthesized using SuperScript® III Reverse Transcriptase (Life Technologies) according to manufacturer's protocol. The expression levels of mRNAs were measured using SYBR green PCR Master Mix (Applied Biosystems). […] The expression of a gene/miRNA was defined from threshold cycle (Ct), and relative transcript abundance was calculated using ddCT method. […]

[6] = tested on: N/TERT-1 keratinocytes; assay: Cornified envelope assay; format: cell-based, human; details: N/TERT-1 treated with HDAC inhibitor vs control, FIG. 6C, 6D
Procedure: N/TERT-1 keratinocytes were grown in DF-K media until confluent, and then shifted to high Ca^2+ conditions (1.5 mM) for a further 7 days in fresh DF-K media to induce terminal differentiation and cornified envelope formation, and the number of cornified envelopes (CEs) assessed following the method of Rice et al. In brief, cells were trypsinized and resuspended at 2.0×10^6 cells/ml in dissociation buffer containing 0.1 M Tris-HCl buffer pH 8.0, 2% SDS and 20 mM dithiothreitol. CEs were harvested by boiling the samples for 15 minutes at 100° C. Detergent- and reducing agent-resistant CEs were collected as an insoluble pellet by centrifugation at 4000×g for 10 minutes. CEs were counted with a hemocytometer, and CE formation was expressed as a percentage of input cell number.

[7] = tested on: N/TERT-1 cells; assay: HDAC inhibitor screening: toxicity, growth arrest and differentiation; format: cell-based, human; details: HDACi 1 μM, 48 hrs
Procedure: A panel of 42 HDAC inhibitors (HDACi) covering the majority of type I, II and pan HDACis were purchased from Selleckchem. N/TERT-1 grown to confluence were treated with HDACi at a final concentration of 1 μM from a 100 μM stock. Control wells were treated with DMSO at a final concentration of 1%. After 48 hrs of treatment, cells were either processed for total RNA isolation or fixed and stained for human involucrin by immunocytochemistry.

## CC(/C=C/C(=O)NO)=C\[C@@H](C)C(=O)c1ccc(N(C)C)cc1 [TSA, trichostatin A]
[1]
  development of AD-like symptoms: suppress the development of AD-like symptoms

## CCCC(=O)[O-].[Na+] [sodium butyrate]
[2]; N/TERT-1, ChIP, FIG. 5D
  enrichment of H3K4ac at the upstream region of MEST and miR-335: significant increase in the enrichment of H3K4ac
[2]; keratinocytes, ChIP
  HDAC2 enrichment in the promoter region of miR-335: reduced
[3]; N/TERT-1, qRT-PCR, FIG. 5C
  relative expression of MEST: significantly increased MEST expression
[3]; N/TERT-1, qRT-PCR, FIG. 5F
  relative transcript abundance of differentiation markers IVL, SPRR2F and TGM1: significant upregulation
[4]; N/TERT-1 keratinocytes, qRT-PCR, FIG. 5B
  relative expression of miR-335: significant miR-335 upregulation

## O=C(/C=C/c1cccc(S(=O)(=O)Nc2ccccc2)c1)NO [belinostat, (E)-N-hydroxy-3-(3-(N-phenylsulfamoyl)phenyl)acrylamide]
[5]; human skin biopsies vs mock treated skin, FIG. 6F
  expression of miR-335 in epidermal layers by in situ hybridization: higher expression of miR-335
[5]; human skin biopsies, FIG. 6G
  levels of IVL by immunohistochemistry: significant increase in the levels of IVL
[5]; human skin biopsies, FIG. 11
  filaggrin (FLG) protein by immunohistochemistry: induced significant levels of filaggrin
[5]; human skin biopsies, topical in acetone, 1 mM, daily for six days, FIG. 6E
  expression of miR-335 by quantitative RT-PCR: significant expression of miR-335
[6]
  number of cornified envelopes (CEs): increased number of CEs
[3]; N/TERT-1 cells vs control cells, FIG. 6B lower panel
  expression of IVL by immunocytochemistry: significant expression of IVL
[7]
  toxicity: low toxicity
[4]; N/TERT-1 cells, FIG. 6B upper panel
  expression of miR-335 by in situ hybridization: Induced expression of miR-335
